In patent US8735382B2, “Infusion and injection solution of levodopa” (Dizlin Medical Design AB, priority 2004, dated 2014):
Entries after “also recorded” stand apart in the source; their conditions may differ.

Assays:
[1] = Solubility of Levodopa in HCl and after raising the pH with glucose; assay type: physicochemical
Procedure: Levodopa can be dissolved in HCl up to 100 mg/mL without any precipitation. To raise the pH with glucose in a way according to the invention and still get a stabile solution, it is possible to obtain 10 mg/mL Levodopa, and with 2 mg/mL Carbidopa addition 20 mg/mL Levodopa. A precipitate appears at 30 mg/mL Levodopa in the presence of 3 mg/mL Carbidopa. The steps of producing the solutions of the invention are made rather quickly up to the addition of glucose.

PD patients = experiment: Continuous intravenous infusion of Levodopa in PD patients; assay type: in vivo, human
Procedure: Continuous infusion of Levodopa has been given to PD patients during 12 hours a day for 10 days. The daily dosage of Levodopa was 608 mg and the infusion rate was 51 mg/h. Fifty % of the patients received traditional oral administration of Carbidopa and 50% received Benserazide.

patient = experiment: Subcutaneous continuous infusion of Levodopa in a patient; assay type: in vivo, human
Text: Tests have been made with subcutaneous infusion. […] The patient was further treated intravenously another day, with continuous Levodopa infusion.

[2] = cited from earlier work
[3] = dissolved in HCl and diluted with glucose, Levodopa only active ingredient; cited from earlier work

- Levodopa concentration dissolved without any precipitation ([1]; in HCl): up to 100 mg/mL
- Levodopa concentration at which a precipitate appears ([1]; in the presence of 3 mg/mL Carbidopa): 30 mg/mL
- Levodopa concentration obtainable as stabile solution ([1]; pH raised with glucose according to the invention, no Carbidopa): 10 mg/mL
- Levodopa concentration obtainable as stabile solution ([1]; pH raised with glucose, with 2 mg/mL Carbidopa addition): 20 mg/mL
Structure (SMILES): N[C@@H](Cc1ccc(O)c(O)c1)C(=O)O [Levodopa, 3-(3,4-dihydroxiphenyl)-L-alanine]
- follow-up time at which the long-term effect was stable (PD patients; after the concluded infusion): 6-10 months
- clinical fluctuations (dyskinesia and bradykinesia) (PD patients; intravenous, 12 hours a day for 10 days, 608 mg daily, seventeen patients, preliminary): both bradykinesia and above all dyskinesia decline; also recorded: pronounced decrease in clinical fluctuations
- duration of the long-lasting effect (PD patients; intravenous, 12 hours for 10 days): at least 5 months
- dyskinesia during infusion treatment, single case (PD patients; person, PD for 20 years): dyskinesia disappeared almost completely
- therapeutic interval from analysis of Levodopa in plasma (PD patients; plasma, not uniform in the material): widening of the therapeutic interval
- required oral Levodopa dosage, post-treatment (mean) (PD patients; seventeen patients, after intravenous infusion treatment): 773 mg/day
- required oral Levodopa dosage, pre-treatment (mean) (PD patients; seventeen patients, before intravenous infusion treatment): 1003 mg/day
- Levodopa blood concentrations during the day (patient; same patient, one day of continuous intravenous infusion): some fluctuations of the Levodopa blood concentrations occurred
- clinical effect (patient; subcutaneous infusion): positive clinical effect; also recorded: good clinical effect
- distribution of Levodopa to the blood (patient; subcutaneous infusion): fast distribution of Levodopa to the blood with measurable concentrations
- dose dependence of response (patient; subcutaneous infusions, one patient): responded in a dose dependant manner
- delay in concentration levels between plasma and CNS ([2]; in vivo): about 90 minutes
- fraction of the total dose that enters the blood circulation ([2]; oral administration): approximately 10%
- Levodopa concentration above which Levodopa precipitates [3]: > 5 mg/mL
